Measurements taken from US20030161853A1, “Methylglycinediacetic acid and deribatives thereof useful as exfoliating agents” (L'OREAL, priority 2002, published 2003).

Tested on: corneodesmosine
Assay: Exfoliation test by measurement of the degradation of corneodesmosines (immunoblot of stratum corneum acetone powders, antibody G36-19, 46 kDa band)
Assay type: biochemical, human
Details: for % increase in the degradation of corneodesmosine: comparative chelating agents tested in the same manner as Example 1 (2% active ingredient, pH 8.0, 8 h at 34° C.); for Percentage increase in the degradation of corneodesmosine: aqueous solution containing 2% of active ingredient, pH 8.0, incubation 8 h at 34° C., relative to control without active ingredient
From the text: Exfoliation Test by Measurement of the Degradation of Corneodesmosines
This Example studies the capacity of trisodium methylglycine diacetate to promote exfoliation by the degradation of corneodesmosines.
Corneodesmosine is one of the majority markers of exfoliation in the corneodesmosome. It is studied by immunoblotting after separation by electrophoresis and transfer to a membrane. […] The murine monoclonal antibody G36-19 is specific for corneodesmosine; it belongs to a series of antibodies directed against epidermal differentiation antigens, produced after the immunization of a mouse with a human plantar horny layer homogenate, and then characterized (Serre G. et al, J. Invest. Dermatol. 1991, 97(6), 1061-72).
Varnish strippings are performed on the lower legs of volunteers (modification of the procedure of Lundström A. and Egelrud T., Acta Derm. Venereol. (stockh) 71, 471-474, 1991). The nylon-varnish leaves associated with the corneocytes are immersed in acetone (1 ml/cm^2) to detach the corneocytes. The mixture is filtered then rinsed three times with the same volume of acetone in order to remove all traces of varnish. Finally, the mixture is dried under vacuum:
acetone-containing powders of stratum corneum are thus obtained.
The acetone-containing powders are divided up into 1 mg aliquots. 100 μl of aqueous solutions containing 2% of active ingredient, adjusted to pH 8.0, are added. Controls without active ingredient are prepared under the same conditions. Two incubation times are studied: t=0 and t=8 h. In the latter case, incubation takes place at 34° C. with agitation.
After incubation, the mixtures are centrifuged for 10 min at 10,000 g. The supernatant is removed and replaced with 100 μl of Laemmli buffer (0.0625 M Tris/HCl pH 6.8, 2% SDS, 200 mM DTT, 10% glycerol) for extraction of the proteins. The mixture is boiled for 10 min at 100° C. and then ground in a Potter mill. The mixture is centrifuged for 10 min at 10,000 g and the supernatant is then collected. It contains the corneodesmosomal proteins.
The total proteins are assayed by Bradford's method (Biorad kit). This allows an adjustment of the samples to 0.6 mg/ml and a true comparison of the treatments. The samples together with a Rainbow low-molecular standard (Amersham Pharmacia Biotech), in a ratio of ⅓, are separated by electrophoresis on 12% acrylamide gel for ½ h at 100 V and then for 1 h at 200 V. After electrophoresis, the proteins are transferred to an Immobilon-P membrane (Millipore) for 3 h at 60 V. The membrane is then incubated for 2 times 15 min in TBS-TL buffer (Tris 25 mM, 0.15 M NaCl pH 7.2, 0.05% Tween 20, 0.5% skimmed milk powder) to block the non-specific sites. Incubation with the antibody G36-19, in a ratio of 1/12,500, is performed overnight at 4° C. After two rinses of 5 min in TBS-TL, the membrane is incubated with an IG(H+L) anti-mouse goat antibody/peroxidase conjugate (Biorad), in a ratio of 1/4000, for 1 h 30 min at room temperature. After several rinses of 5 min in TBS-TL and then TBS (without milk or Tween), the membrane is incubated for 1 min in 10 ml of ECL reagent (Amersham Pharmacia Biotech). The chemiluminescence of the corneodesmosine bands is measured with FluorS Multimager (Biorad). The 46 kDa band is quantified using the Quantity-one software (Biorad).
Glycine is used as a reference compound in this study, it having been shown in patent application EP-A2-0 852 949 (Shiseido) that glycine promotes the degradation of desmoglein (corneodesmosomal protein). […]

SMILES	% increase in the degradation of corneodesmosine [%]	Percentage increase in the degradation of corneodesmosine [%]	effect on the degradation of corneodesmosines (in words) (2% active ingredient, pH 8.0, 8 h at 34° C.)
N=C(CC(=O)[O-])C(=O)[O-].[Na+].[Na+] [Na iminosuccinate, sodium iminosuccinate]	−79	–	–
NCC(=O)O [Glycine]	–	30	–
CCCCCCCCCCCC(=O)N(CCN(CC(=O)O)CC(=O)O)CC(=O)O [Lauroylethylenediaminetriacetic acid, lauroylethylenediaminetriacetic acid]	−80	–	–
CC(C(=O)[O-])N(CC(=O)[O-])CC(=O)[O-].[Na+].[Na+].[Na+] (centres unmarked) [Trisodium methylglycine diacetate, trisodium methylglycine diacetate]	–	59	promotes the degradation of corneodesmosines
